# Measurements reported in patent US20240209019A1, “COMPOUNDS AND METHODS FOR TREATING HYPERKALEMIA” (ARDELYX, INC., priority 2019, published 2024).
# Molecular target: HSD2 (Homo sapiens (Human), UniProt P80365)
# Experiment: HSD2 activity: cortisol conversion in human descending colon organoid monolayer cultures (Example 112)
# Conditions: human descending colon epithelial cultures on transwells; 30 minute pre-incubation, then 40 nM cortisol for four hours; cortisol HTRF assay
# Method: Human descending colon epithelial stem cells were cultured as 3D organoids in accordance with Sato et al. Gastroenterology. […] Cultures were differentiated using SBM containing ENRA and 30 nM aldosterone on day 3, and cultures were used for assay on day 6 or 7. Compounds were diluted in DMSO and serial dilutions prepared by titrating in DMSO. Compounds were then diluted into DMEM/F12. Transwell plates containing descending colon cultures were washed twice with DMEM/F12 and compound was added to the apical compartment. Cells were incubated with test compound for 30 minutes at 37° C., 5% CO2 to equilibrate across the cell membrane. A second compound plate was prepared in which the serially diluted compounds in DMSO were diluted into DMEM/F12 containing 40 nM cortisol. Following the 30 minute pre-incubation step, the apical media was aspirated and compounds diluted in DMEM/F12 with 40 nM cortisol were added to the apical side of the transwell. The plate was then incubated for four hours at 37° C., 5% CO2. Cortisol levels were measured using a cortisol HTRF assay kit as described by the manufacturer (Cisbio). Concentration-response curves were then plotted and IC50 (and pIC50) values were determined using least squares non-linear regression.
# Inhibition of HSD2 activity as measured by the inhibition of the conversion of cortisone to cortisol.
# Sequence of HSD2 (P80365 whole entry): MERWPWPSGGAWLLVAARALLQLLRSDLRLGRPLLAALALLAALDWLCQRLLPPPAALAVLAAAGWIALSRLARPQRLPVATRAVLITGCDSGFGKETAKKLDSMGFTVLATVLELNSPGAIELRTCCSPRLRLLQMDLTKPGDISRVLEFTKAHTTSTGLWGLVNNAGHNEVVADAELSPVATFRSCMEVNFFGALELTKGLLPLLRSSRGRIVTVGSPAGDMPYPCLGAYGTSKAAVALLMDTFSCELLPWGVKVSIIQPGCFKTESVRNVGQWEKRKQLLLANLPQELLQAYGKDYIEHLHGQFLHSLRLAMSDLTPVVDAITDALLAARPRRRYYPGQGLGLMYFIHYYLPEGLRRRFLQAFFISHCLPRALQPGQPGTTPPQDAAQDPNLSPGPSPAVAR
row,Compound,pIC50
1,"CC(=O)O[C@]1(C)CC[C@@]2(C)[C@@H](CC[C@]3(C)[C@@H]2C(=O)C=C2[C@@H]4C[C@@](C)(C(=O)O)CC[C@]4(C)CC[C@]23C)[C@]1(C)C(=O)OCc1oc(=O)oc1C [Compound 704-1, (2S,4aS,6aS,6bR,8aR,9S,10R,12aS,12bR,14bR)-10-(acetyloxy)-2,4a,6a,6b,9,10,12a-heptamethyl-9-{[(5-methyl-2-oxo-2H-1,3-dioxol-4-yl)methoxy]carbonyl}-13-oxo-1,2,3,4,4a,5,6,6a,6b,7,8,8a,9,10,11,12,12a,12b,13,14b-icosahydropicene-2-carboxylic acid]",6.3
2,"CC(=O)O[C@H]1CC[C@@]2(C)[C@@H](CC[C@]3(C)[C@@H]2C(=O)C=C2[C@@H]4C[C@@](C)(C(=O)O)CC[C@]4(C)CC[C@]23C)[C@]1(C)C(=O)OCc1oc(=O)oc1C(C)(C)C [Compound 705-1, (2S,4aS,6aS,6bR,8aR,9S,10S,12aS,12bR,14bR)-10-(acetyloxy)-9-{[(5-tert-butyl-2-oxo-2H-1,3-dioxol-4-yl)methoxy]carbonyl}-2,4a,6a,6b,9,12a-hexamethyl-13-oxo-1,2,3,4,4a,5,6,6a,6b,7,8,8a,9,10,11,12,12a,12b,13,14b-icosahydropicene-2-carboxylic acid]",6.6
3,"CCCc1oc(=O)oc1COC(=O)[C@]1(C)[C@@H](OC(C)=O)CC[C@@]2(C)[C@H]1CC[C@]1(C)[C@@H]2C(=O)C=C2[C@@H]3C[C@@](C)(C(=O)O)CC[C@]3(C)CC[C@]21C [Compound 706-1, (2S,4aS,6aS,6bR,8aR,9S,10S,12aS,12bR,14bR)-10-(acetyloxy)-2,4a,6a,6b,9,12a-hexamethyl-13-oxo-9-{[(2-oxo-5-propyl-2H-1,3-dioxol-4-yl)methoxy]carbonyl}-1,2,3,4,4a,5,6,6a,6b,7,8,8a,9,10,11,12,12a,12b,13,14b-icosahydropicene-2-carboxylic acid]",6.7
4,"CC(=O)O[C@H]1CC[C@@]2(C)[C@@H](CC[C@]3(C)[C@@H]2C(=O)C=C2[C@@H]4C[C@@](C)(C(=O)O)CC[C@]4(C)CC[C@]23C)[C@]1(C)C(=O)OCc1oc(=O)oc1-c1ccccc1 [Compound 707-1, (2S,4aS,6aS,6bR,8aR,9S,10S,12aS,12bR,14bR)-10-(acetyloxy)-2,4a,6a,6b,9,12a-hexamethyl-13-oxo-9-{[(2-oxo-5-phenyl-2H-1,3-dioxol-4-yl)methoxy]carbonyl}-1,2,3,4,4a,5,6,6a,6b,7,8,8a,9,10,11,12,12a,12b,13,14b-icosahydropicene-2-carboxylic acid]",7.1
5,"COCC(=O)O[C@H]1CC[C@@]2(C)[C@@H](CC[C@]3(C)[C@@H]2C(=O)C=C2[C@@H]4C[C@@](C)(C(=O)O)CC[C@]4(C)CC[C@]23C)[C@]1(C)C(=O)OCc1oc(=O)oc1C(C)C [Compound 708-1, (2S,4aS,6aS,6bR,8aR,9S,10S,12aS,12bR,14bR)-10-[(2-methoxyacetyl)oxy]-2,4a,6a,6b,9,12a-hexamethyl-13-oxo-9-({[2-oxo-5-(propan-2-yl)-2H-1,3-dioxol-4-yl]methoxy}carbonyl)-1,2,3,4,4a,5,6,6a,6b,7,8,8a,9,10,11,12,12a,12b,13,14b-icosahydropicene-2-carboxylic acid]",6.3
6,"COCC(=O)O[C@H]1CC[C@@]2(C)[C@@H](CC[C@]3(C)[C@@H]2C(=O)C=C2[C@@H]4C[C@@](C)(C(=O)O)CC[C@]4(C)CC[C@]23C)[C@]1(C)C(=O)OCc1oc(=O)oc1C [Compound 709-1, (2S,4aS,6aS,6bR,8aR,9S,10S,12aS,12bR,14bR)-10-[(2-methoxyacetyl)oxy]-2,4a,6a,6b,9,12a-hexamethyl-9-{[(5-methyl-2-oxo-2H-1,3-dioxol-4-yl)methoxy]carbonyl}-13-oxo-1,2,3,4,4a,5,6,6a,6b,7,8,8a,9,10,11,12,12a,12b,13,14b-icosahydropicene-2-carboxylic acid]",7.2
7,"COCCOCCOCCSCc1oc(=O)oc1COC(=O)CO[C@H]1CC[C@]2(C)[C@H]3C(=O)C=C4[C@@H]5C[C@@](C)(C(=O)O)CC[C@]5(C)CC[C@@]4(C)[C@]3(C)CC[C@H]2C1(C)C [Compound 710-1, (2S,4aS,6aS,6bR,8aR,10S,12aS,12bR,14bR)-2,4a,6a,6b,9,9,12a-heptamethyl-13-oxo-10-(2-oxo-2-{[2-oxo-5-(2,5,8-trioxa-11-thiadodecan-12-yl)-2H-1,3-dioxol-4-yl]methoxy}ethoxy)-1,2,3,4,4a,5,6,6a,6b,7,8,8a,9,10,11,12,12a,12b,13,14b-icosahydropicene-2-carboxylic acid]",6
8,"CC1(C)[C@@H](OCC(=O)OCc2oc(=O)oc2CO)CC[C@]2(C)[C@H]3C(=O)C=C4[C@@H]5C[C@@](C)(C(=O)O)CC[C@]5(C)CC[C@@]4(C)[C@]3(C)CC[C@@H]12 [Compound 711-1, (2S,4aS,6aS,6bR,8aR,10S,12aS,12bR,14bR)-10-(2-{[5-(hydroxymethyl)-2-oxo-2H-1,3-dioxol-4-yl]methoxy}-2-oxoethoxy)-2,4a,6a,6b,9,9,12a-heptamethyl-13-oxo-1,2,3,4,4a,5,6,6a,6b,7,8,8a,9,10,11,12,12a,12b,13,14b-icosahydropicene-2-carboxylic acid]",5.8
9,"Cc1oc(=O)oc1COC(=O)CO[C@H]1CC[C@]2(C)[C@H]3C(=O)C=C4[C@@H]5C[C@@](C)(C(=O)O)CC[C@]5(C)CC[C@@]4(C)[C@]3(C)CC[C@H]2C1(C)C [Compound 712-1, (2S,4aS,6aS,6bR,8aR,10S,12aS,12bR,14bR)-2,4a,6a,6b,9,9,12a-heptamethyl-10-{2-[(5-methyl-2-oxo-2H-1,3-dioxol-4-yl)methoxy]-2-oxoethoxy}-13-oxo-1,2,3,4,4a,5,6,6a,6b,7,8,8a,9,10,11,12,12a,12b,13,14b-icosahydropicene-2-carboxylic acid]",5
10,"CCOC(=O)c1cnn([C@H]2CC[C@@]3(C)[C@@H](CC[C@]4(C)[C@@H]3C(=O)C=C3[C@@H]5C[C@@](C)(C(=O)O)CC[C@]5(C)CC[C@]34C)[C@]2(C)C(=O)OCc2oc(=O)oc2C)c1OC [Compound 713-1, (2S,4aS,6aS,6bR,8aR,9S,10S,12aS,12bR,14bR)-10-[4-(ethoxycarbonyl)-5-methoxy-1H-pyrazol-1-yl]-2,4a,6a,6b,9,12a-hexamethyl-9-{[(5-methyl-2-oxo-2H-1,3-dioxol-4-yl)methoxy]carbonyl}-13-oxo-1,2,3,4,4a,5,6,6a,6b,7,8,8a,9,10,11,12,12a,12b,13,14b-icosahydropicene-2-carboxylic acid]",6.9
